Experimental data reported in patent US10077261B2, “Imidazolin-5-one derivative useful as FASN inhibitors for the treatment of cancer” (Janssen Pharmaceutica NV, priority 2012, dated 2018).

Biological target: T1, hFASN enzyme (full length) (Homo sapiens, UniProt P49327)
T1 construct: 10 μL hFASN enzyme (full length, 300 ng, purified in house); made in house
Test: Fatty Acid Synthase (FASN) inhibition scintillation proximity assay
Format: biochemical
Details: for inhibition at 10 µM: read-out: Human FASN % inhibition @ 10 μM, 10 μM test compound; for IC50: read-out: Human FASN pIC50 (converted)
Method in brief: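 Purified full-length hFASN (300 ng) converts ^3H-acetyl-CoA plus malonyl-CoA to ^3H-palmitate in 100 mM KH2PO4 pH 7.5, 1 mM DTT; compounds tested at 0.01–30 μM. Product captured on streptavidin imaging beads and read by LEADseeker at 610 nm after ≥24 h; 4-parameter logistic fit versus controls.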

T1 sequence (P49327 whole entry): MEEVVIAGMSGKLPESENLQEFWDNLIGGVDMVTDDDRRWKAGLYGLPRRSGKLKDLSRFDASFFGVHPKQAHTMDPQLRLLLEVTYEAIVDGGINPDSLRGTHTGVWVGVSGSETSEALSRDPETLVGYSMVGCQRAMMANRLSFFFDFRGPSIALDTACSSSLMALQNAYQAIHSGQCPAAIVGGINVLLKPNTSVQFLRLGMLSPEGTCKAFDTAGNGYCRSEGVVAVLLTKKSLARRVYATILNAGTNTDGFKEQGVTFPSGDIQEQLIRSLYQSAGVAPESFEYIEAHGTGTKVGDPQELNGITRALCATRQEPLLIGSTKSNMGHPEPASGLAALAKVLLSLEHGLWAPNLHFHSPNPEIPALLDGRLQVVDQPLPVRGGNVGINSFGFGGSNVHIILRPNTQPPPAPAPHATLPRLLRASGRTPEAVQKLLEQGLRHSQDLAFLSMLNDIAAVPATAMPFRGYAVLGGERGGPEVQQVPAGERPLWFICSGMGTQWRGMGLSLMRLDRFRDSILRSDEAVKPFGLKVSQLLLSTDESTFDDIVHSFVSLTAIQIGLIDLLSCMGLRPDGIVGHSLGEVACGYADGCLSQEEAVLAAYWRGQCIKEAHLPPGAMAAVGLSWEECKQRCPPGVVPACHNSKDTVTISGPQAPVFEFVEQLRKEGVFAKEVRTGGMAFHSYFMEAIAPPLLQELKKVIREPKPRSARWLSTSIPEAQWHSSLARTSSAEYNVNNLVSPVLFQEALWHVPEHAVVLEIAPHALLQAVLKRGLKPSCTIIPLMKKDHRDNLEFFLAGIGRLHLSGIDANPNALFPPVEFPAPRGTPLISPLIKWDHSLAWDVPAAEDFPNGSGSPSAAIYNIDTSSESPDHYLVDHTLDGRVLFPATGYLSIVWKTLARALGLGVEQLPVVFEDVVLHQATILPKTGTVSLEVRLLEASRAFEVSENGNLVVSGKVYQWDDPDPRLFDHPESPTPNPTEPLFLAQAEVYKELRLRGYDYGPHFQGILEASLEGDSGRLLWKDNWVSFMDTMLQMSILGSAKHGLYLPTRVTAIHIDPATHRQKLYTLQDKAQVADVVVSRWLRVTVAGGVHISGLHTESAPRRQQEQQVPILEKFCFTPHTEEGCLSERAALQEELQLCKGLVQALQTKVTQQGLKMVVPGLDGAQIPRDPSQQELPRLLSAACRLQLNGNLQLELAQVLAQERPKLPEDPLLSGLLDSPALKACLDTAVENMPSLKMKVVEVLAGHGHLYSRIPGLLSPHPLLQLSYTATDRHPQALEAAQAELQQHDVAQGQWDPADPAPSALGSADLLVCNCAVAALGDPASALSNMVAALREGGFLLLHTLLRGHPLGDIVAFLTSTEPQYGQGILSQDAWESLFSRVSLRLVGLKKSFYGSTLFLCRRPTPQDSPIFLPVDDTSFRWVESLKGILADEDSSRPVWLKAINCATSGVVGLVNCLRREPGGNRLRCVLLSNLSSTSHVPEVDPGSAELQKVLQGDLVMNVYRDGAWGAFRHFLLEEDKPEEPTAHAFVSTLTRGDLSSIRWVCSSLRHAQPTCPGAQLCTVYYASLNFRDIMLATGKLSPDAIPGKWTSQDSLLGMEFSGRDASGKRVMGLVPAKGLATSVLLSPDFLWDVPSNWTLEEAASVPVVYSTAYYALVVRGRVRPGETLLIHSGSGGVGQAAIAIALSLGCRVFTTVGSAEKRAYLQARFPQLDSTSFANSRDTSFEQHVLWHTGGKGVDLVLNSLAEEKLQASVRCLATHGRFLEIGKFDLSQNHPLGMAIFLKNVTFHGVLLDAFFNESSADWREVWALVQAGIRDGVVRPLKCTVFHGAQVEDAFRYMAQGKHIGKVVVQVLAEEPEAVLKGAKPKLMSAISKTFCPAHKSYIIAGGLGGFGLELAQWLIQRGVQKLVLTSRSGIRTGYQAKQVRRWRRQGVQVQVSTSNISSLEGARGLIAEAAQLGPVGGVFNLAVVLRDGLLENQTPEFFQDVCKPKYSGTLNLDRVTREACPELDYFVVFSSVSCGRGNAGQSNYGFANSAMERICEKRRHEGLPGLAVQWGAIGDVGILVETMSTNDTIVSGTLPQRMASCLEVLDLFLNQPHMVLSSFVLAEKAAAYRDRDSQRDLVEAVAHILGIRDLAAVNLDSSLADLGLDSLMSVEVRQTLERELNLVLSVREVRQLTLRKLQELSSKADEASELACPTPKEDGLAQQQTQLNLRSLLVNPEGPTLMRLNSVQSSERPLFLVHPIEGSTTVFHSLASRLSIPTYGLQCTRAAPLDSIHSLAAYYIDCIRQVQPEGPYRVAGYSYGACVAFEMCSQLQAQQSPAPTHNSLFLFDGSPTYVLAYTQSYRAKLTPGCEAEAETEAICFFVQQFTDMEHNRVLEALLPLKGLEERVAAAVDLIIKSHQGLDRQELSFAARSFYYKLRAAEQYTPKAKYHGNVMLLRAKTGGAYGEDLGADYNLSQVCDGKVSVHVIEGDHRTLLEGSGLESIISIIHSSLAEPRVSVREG

inhibition at 10 µM [%]	IC50 [µM]	SMILES
72	~2.4	O=C(C1CC1)N1CC(CN2C(=O)C3(CCOC3)N=C2c2ccc(-c3ccc4occc4c3)cc2)C1 (stereo not drawn) [compound 718, 2-[4-(1-Benzofuran-5-yl)phenyl]-3-{[1-(cyclopropylcarbonyl)azetidin-3-yl]methyl}-7-oxa-1,3-diazaspiro[4.4]non-1-en-4-one]
67	3.89	CC(O)C(=O)N1CC(CN2C(=O)C3(CCOC3)N=C2c2ccc(-c3ccc4occc4c3)cc2)C1 (stereo not drawn) [compound 719, 2-[4-(1-Benzofuran-5-yl)phenyl]-3-{[1-(2-hydroxypropanoyl)azetidin-3-yl]methyl}-7-oxa-1,3-diazaspiro[4.4]non-1-en-4-one]
63	5.75	O=C(N1CCCC1)N1CC(CN2C(=O)C3(CCOC3)N=C2c2ccc(-c3ccc4occc4c3)cc2)C1 (stereo not drawn) [compound 721, 2-[4-(1-Benzofuran-5-yl)phenyl]-3-{[1-(pyrrolidin-1-ylcarbonyl)azetidin-3-yl]methyl}-7-oxa-1,3-diazaspiro[4.4]non-1-en-4-one]
56	6.61	Cn1ncc2cc(-c3ccc(C4=NC5(CCOC5)C(=O)N4CC4CN(C(=O)C5CC5)C4)cc3)ccc21 (stereo not drawn) [compound 722, 3-{[1-(Cyclopropylcarbonyl)azetidin-3-yl]methyl}-2-[4-(1-methyl-1H-indazol-5-yl)phenyl]-7-oxa-1,3-diazaspiro[4.4]non-1-en-4-one]
55	7.94	CC(O)C(=O)N1CC(CN2C(=O)C3(CCOC3)N=C2c2ccc(-c3ccc4c(cnn4C)c3)cc2)C1 (stereo not drawn) [compound 723, 3-{[1-(2-Hydroxypropanoyl)azetidin-3-yl]methyl}-2-[4-(1-methyl-1H-indazol-5-yl)phenyl]-7-oxa-1,3-diazaspiro[4.4]non-1-en-4-one]
47	4.17	Cn1ncc2cc(-c3ccc(C4=NC5(CCOC5)C(=O)N4CC4CN(C(=O)[C@H]5CCCO5)C4)cc3)ccc21 (stereo partly drawn) [compound 724, 2-[4-(1-Methyl-1H-indazol-5-yl)phenyl]-3-({1-[(2R)-tetrahydro-furan-2-ylcarbonyl]azetidin-3-yl}methyl)-7-oxa-1,3-diazaspiro[4.4]non-1-en-4-one]
73	1.95	COC(=O)N1CC2(C1)N=C(c1ccc(-c3ccc(-c4cnn(C)c4)cc3)cc1)N(C[C@@H]1CCN(C(=O)C(C)O)C1)C2=O (stereo partly drawn) [compound 726, Methyl 7-{[(3R)-1-(2-hydroxypropanoyl)pyrrolidin-3-yl]methyl}-6-[4′-(1-methyl-1H-pyrazol-4-yl)biphenyl-4-yl]-8-oxo-2,5,7-triazaspiro[3.4]oct-5-ene-2-carboxylate]
84	1.7	COC(=O)N1CC2(C1)N=C(c1ccc(-c3ccc4occc4c3)cc1)N(C[C@@H]1CCN(C(=O)C(C)O)C1)C2=O (stereo partly drawn) [compound 734, Methyl 6-[4-(1-benzofuran-5-yl)phenyl]-7-{[(3R)-1-(2-hydroxypropanoyl)pyrrolidin-3-yl]methyl}-8-oxo-2,5,7-triazaspiro[3.4]oct-5-ene-2-carboxylate]
80	1.91	COC(=O)N1CC2(C1)N=C(c1ccc(-c3ccc4c(cnn4C)c3)cc1)N(C[C@@H]1CCN(C(=O)C(C)O)C1)C2=O (stereo partly drawn) [compound 738, Methyl 7-{[(3R)-1-(2-hydroxypropanoyl)pyrrolidin-3-yl]methyl}-6-[4-(1-methyl-1H-indazol-5-yl)phenyl]-8-oxo-2,5,7-triazaspiro[3.4]oct-5-ene-2-carboxylate]
46	8.91	COC(=O)N1CC2(C1)N=C(c1ccc(-c3ccc4c(cnn4C)c3)cc1)N(C[C@@H]1CCN(C(=O)N3CCCC3)C1)C2=O [compound 740, Methyl 6-[4-(1-methyl-1H-indazol-5-yl)phenyl]-8-oxo-7-{[(3S)-1-(pyrrolidin-1-ylcarbonyl)pyrrolidin-3-yl]methyl}-2,5,7-triazaspiro[3.4]oct-5-ene-2-carboxylate]
45	~7.59	Cn1ncc2cc(-c3ccc(C4=NC5(CCN(S(C)(=O)=O)CC5)C(=O)N4CC4CN(C(=O)C5CC5)C4)cc3)ccc21 [compound 761, 3-{[1-(Cyclopropylcarbonyl)azetidin-3-yl]methyl}-2-[4-(1-methyl-1H-indazol-5-yl)phenyl]-8-(methylsulfonyl)-1,3,8-triazaspiro[4.5]dec-1-en-4-one]

The remaining lines, values behind:

SMILES	inhibition at 10 µM [%]	IC50 [µM]
COC(=O)N1CC2(C1)N=C(c1ccc(-c3ccc4cccnc4c3)cc1)N(C[C@@H]1CCN(C(=O)C(F)(F)F)C1)C2=O [compound 731, Methyl 8-oxo-6-(4-quinolin-7-ylphenyl)-7-{[(3R)-1-(trifluoroacetyl)pyrrolidin-3-yl]methyl}-2,5,7-triazaspiro[3.4]oct-5-ene-2-carboxylate]	63	3.8
COC(=O)N1CC2(C1)N=C(c1ccc(-c3ccc4cccnc4c3)cc1)N(C[C@@H]1CCN(C(=O)N3CCCC3)C1)C2=O [compound 732, Methyl 8-oxo-7-{[(3S)-1-(pyrrolidin-1-ylcarbonyl)pyrrolidin-3-yl]methyl}-6-(4-quinolin-7-ylphenyl)-2,5,7-triazaspiro[3.4]oct-5-ene-2-carboxylate]	88	~1.2
CC(C)C(=O)N1CCC2(CC1)N=C(c1ccc(-c3ccc4[nH]ncc4c3)cc1)N(CC1CN(C(=O)C3CC3)C1)C2=O [compound 754, 3-{[1-(Cyclopropylcarbonyl)azetidin-3-yl]methyl}-2-[4-(1H-indazol-5-yl)phenyl]-8-(2-methylpropanoyl)-1,3,8-triazaspiro[4.5]dec-1-en-4-one]	67	2.95
COCCN1CCC2(CC1)N=C(c1ccc(-c3ccc4[nH]ncc4c3)cc1)N(CC1CN(C(=O)C3CC3)C1)C2=O [compound 756]	82	1.58
O=C(C1CC1)N1CC(CN2C(=O)C3(CCN(CCO)CC3)N=C2c2ccc(-c3ccc4[nH]ncc4c3)cc2)C1 [compound 758, 3-{[1-(Cyclopropylcarbonyl)azetidin-3-yl]methyl}-8-(2-hydroxyethyl)-2-[4-(1H-indazol-5-yl)phenyl]-1,3,8-triazaspiro[4.5]dec-1-en-4-one]	71	3.39
Cn1cc(-c2ccc(-c3ccc(C4=NC5(CCNCC5)C(=O)N4CC4CN(C(=O)C5CC5)C4)cc3)cc2)cn1 [compound 759, 3-{[1-(Cyclopropylcarbonyl)azetidin-3-yl]methyl}-2-[4′-(1-methyl-1H-pyrazol-4-yl)biphenyl-4-yl]-1,3,8-triazaspiro[4.5]dec-1-en-4-one]	38	9.12
CS(=O)(=O)N1CCC2(CC1)N=C(c1ccc(-c3ccc4occc4c3)cc1)N(CC1CN(C(=O)C3CC3)C1)C2=O [compound 760, 2-[4-(1-Benzofuran-5-yl)phenyl]-3-{[1-(cyclopropylcarbonyl)azetidin-3-yl]methyl}-8-(methylsulfonyl)-1,3,8-triazaspiro[4.5]dec-1-en-4-one]	62	4.79
CS(=O)(=O)N1CCC2(CC1)N=C(c1ccc(-c3ccc4[nH]ncc4c3)cc1)N(CC1CN(C(=O)C3CC3)C1)C2=O [compound 763, 3-{[1-(Cyclopropylcarbonyl)azetidin-3-yl]methyl}-2-[4-(1H-indazol-5-yl)phenyl]-8-(methylsulfonyl)-1,3,8-triazaspiro[4.5]dec-1-en-4-one]	63	~5.37
O=C(C1CC1)N1CC(CN2C(=O)C3(CCN(C(=O)C(F)(F)F)CC3)N=C2c2ccc(-c3ccc4occc4c3)cc2)C1 [compound 764, 2-[4-(1-Benzofuran-5-yl)phenyl]-3-{[1-(cycloprropylcarbonyl)azetidin-3-yl]methyl}-8-(trifluoroacetyl)-1,3,8-triazaspiro[4.5]dec-1-en-4-one]	63	~4.37
O=C(C1CC1)N1CC(CN2C(=O)C3(CCN(C(=O)C(F)(F)F)CC3)N=C2c2ccc(-c3ccc4[nH]ncc4c3)cc2)C1 [compound 766, 3-{[1-(Cyclopropylcarbonyl)azetidin-3-yl]methyl}-2-[4-(1H-indazol-5-yl)phenyl]-8-(trifluoroacetyl)-1,3,8-triazaspiro[4.5]dec-1-en-4-one]	67	~4.47
CC(C)C(=O)N1CCC2(CC1)N=C(c1ccc(-c3ccc(-c4cnn(C)c4)cc3)cc1)N(CC1CN(C(=O)C3CC3)C1)C2=O [compound 767, 3-{[1-(Cycloprropylcarbonyl)azetidin-3-yl]methyl}-8-(2-methylpropanoyl)-2-[4′-(1-methyl-1H-pyrazol-4-yl)biphenyl-4-yl]-1,3,8-triazaspiro[4.5]dec-1-en-4-one]	76	1.91
CN(C)CC(=O)N1CCC2(CC1)N=C(c1ccc(-c3ccc(-c4cnn(C)c4)cc3)cc1)N(CC1CN(C(=O)C3CC3)C1)C2=O [compound 768, 3-{[1-(Cyclopropylcarbonyl)azetidin-3-yl]methyl}-8-(N,N-dimethylglycyl)-2-[4′-(1-methyl-1H-pyrazol-4-yl)biphenyl-4-yl]-1,3,8-triazaspiro[4.5]dec-1-en-4-one]	79	1.45
Cn1cc(-c2ccc(-c3ccc(C4=NC5(CCN(S(C)(=O)=O)CC5)C(=O)N4CC4CN(C(=O)C5CC5)C4)cc3)cc2)cn1 [compound 769, 3-{[1-(Cyclopropylcarbonyl)azetidin-3-yl]methyl}-2-[4′-(1-methyl-1H-pyrazol-4-yl)biphenyl-4-yl]-8-(methylsulfonyl)-1,3,8-triazaspiro[4.5]dec-1-en-4-one]	60	5.01
